According to patent publication EP2790511B1 (Merck Sharp & Dohme Corp., priority 2011, dated 2013):

molecular target: T1, hROMK (hKir1.1) (Homo sapiens, UniProt P48048); assay: Thallium Flux Assay; assay type: cell-based; conditions: HEK293 cells stably expressing hROMK (hKir1.1), FLIPR-Tetra; read-out: Thallium Flux IC50
T1 construct: expressed in transfected cells
T1 sequence (P48048 1-391): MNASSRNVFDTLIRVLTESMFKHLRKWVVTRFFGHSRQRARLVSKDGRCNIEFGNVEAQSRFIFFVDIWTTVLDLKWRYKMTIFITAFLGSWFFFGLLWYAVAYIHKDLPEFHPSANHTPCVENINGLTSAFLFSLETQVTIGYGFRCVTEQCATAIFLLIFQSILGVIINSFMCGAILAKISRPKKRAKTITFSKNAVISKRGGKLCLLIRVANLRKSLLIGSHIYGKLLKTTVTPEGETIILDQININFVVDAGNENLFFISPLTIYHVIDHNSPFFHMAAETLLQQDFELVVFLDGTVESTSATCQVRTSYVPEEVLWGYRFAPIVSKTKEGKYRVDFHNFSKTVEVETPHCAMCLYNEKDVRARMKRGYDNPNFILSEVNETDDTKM
Procedure: Cell Culture Conditions- HEK293 cells stably expressing hROMK (hKir1.1) were grown at 37°C in a 10%CO2 humidified incubator in complete growth media: Dulbecco's Modified Eagle Medium supplemented with non-essential amino acids, Penicillin/Streptomycin/Glutamine, G418 and FBS. At >80% confluency, aspirate the media from the flask and rinse with 10 mL Calcium/Magnesium-free PBS. […] To dislodge the cell, gently bang the side of the flask with your hand. Triturate the cells completely and then transfer the cells to 25 mL complete media. Centrifuge at 1,500 rpm for 6 min followed by resuspension in complete growth media and determine cell concentration. […] Under ideal growth conditions and appropriate tissue culture practices, this cell line is stable for 40-45 passages.
• FluxOR™ Reagent (Component A) • FluxOR™ Assay Buffer (Component B) - 10X Concentrate • PowerLoad™ Concentrate (Component C) - 100X Concentrate • Probenecid (Component D) - Lyophilized sample is kept at -20°C. Water soluble, 100X after solubilization in 1 mL water. […] Store at 4°C. • Thallium sulfate (Tl2SO4) Concentrate (Component G) - 50 mM in water. Store at 4°C • DMSO (dimethyl sulfoxide, Component H) - 1 mL (100%)
• 1000X FluxOR™ Reagent: Reconstitute a vial of component A in 100 µl DMSO; Mix well; Store 10 µl aliquots at -20°C • 1X FluxOR™ Assay Buffer: Dilute Component B 10-fold with water; Adjust pH to 7.4 with Hepes/NaOH; Filter and store at 4°C • Probenecid/Assay Buffer: 100 mL of 1X FluxOR™ Assay Buffer; 1 mL of reconstituted component D; Store at 4°C • Loading Buffer (per microplate): 10 µl 1000X FluxOR™ Reagent; 100 µl component C; 10 mL Probenecid/Assay Buffer • Compound Buffer (per microplate): 20 mL Probenecid/Assay Buffer; 0.3 mM ouabain (10 mM ouabain in water can be stored in amber bottle/aluminum foil at room temperature); Test compound • 1X FluxOR™Chloride-Free Buffer: Prepare 1X working solution in water. Can be stored at room temperature • Stimulant Buffer (prepared at 5X final concentration in 1X FluxOR™Chloride-Free Buffer): 7.5 mM Thallium sulfate and 0.75 mM Potassium sulfate (to give a final assay concentration of 3 mM Thallium/ 0.3 mM Potassium). Store at 4°C when not in use. If kept sterile, this solution is good for months.
Assay protocol- The ROMK channel functional thallium flux assay is performed in 384 wells, using the FLIPR-Tetra instrument. HEK-hKir1.1 cells are seeded in Poly-D-Lysine microplates and kept in a 37°C-10%CO2 incubator overnight. On the day of the experiment, the growth media is replaced with the FluxOR™ reagent loading buffer and incubated, protected from light, at ambient temperature (23-25°C) for 90 min. The loading buffer is replaced with assay buffer ± test compound followed by 30 min incubation at ambient temperature, where the Thallium/Potassium stimulant is added to the microplate.
• 1. Seed HEK-hKir1.1 cells (50 µl at 20,000 cells/well) in 384-well PDL coated Microplates • 2. Allow cells to adhere overnight in humidified 37°C/10%CO2 incubator • 3. Completely remove cell growth media from microplate and replace with 25 µl loading buffer • 4. Incubate Microplate at room temperature, protected form light, for 90 min • 5. Remove loading buffer and replace with 25 µl 1x Assay Buffer ± test compound. • 6. Incubate microplate at room temperature, protected form light, for 30 min • 7. […] Excitation = 400 nm, Emission = 460 & 580 nm. Collect data for ∼ 10 min.
Data Calculation- The fluorescence intensity of wells containing 3 µM of a standard control ROMK inhibitor of the present invention is used to define the ROMK-sensitive component of thallium flux. Fluorescence in the presence of test compounds is normalized to control values to provide % fluorescence change.

Compound	IC50 [nM]
N#Cc1c(F)ccc([C@@H]2CN3CCN(C(=O)Cc4ccc(-n5cnnn5)cn4)C[C@H]3CO2)c1Cl [Example 53]	60
N#Cc1c(F)ccc([C@@H]2CN3CCN(C(=O)Cc4ccc(-n5cnnn5)cn4)C[C@H]3CO2)c1F [Example 54, 2,6-difluoro-3-[(3R,9aS)-8-{[5-(1H-tetrazol-1-yl)pyridin-2-yl]acetyl}octahydropyrazino[2,1-c][1,4]oxazin-3-yl]benzonitrile]	100
COc1cc([C@H]2CN3CCN(C(=O)Cc4ccc(-n5cnnn5)nc4)C[C@H]3CO2)ccc1C#N [Example 56, 2-methoxy-4-[(3S,9aS)-8-{[6-(1H-tetrazol-1-yl)pyridin-3-yl]acetyl}octahydropyrazino[2,1-c][1,4]oxazin-3-yl]benzonitrile]	120
COc1c([C@@H]2CN3CCN(C(=O)Cc4ccc(-n5cnnn5)nc4)C[C@H]3CO2)ccc(F)c1C#N [Example 60, 6-fluoro-2-methoxy-3-[(3R,9aS)-8-{[6-(1H-tetrazol-1-vl)pvridin-3-yl]acetyl}octahydropyrazino[2,1-c][1,4]oxazin-3-yl]benzonitrile]	140
COc1c([C@@H]2CN3CCN(C(=O)Cc4ccc(-n5cnnn5)cn4)C[C@H]3CO2)ccc(F)c1C#N [Example 62, 6-fluoro-2-methoxy-3-[(3R,9aS)-8-{[5-(1H-tetrazol-1-vl)pvridin-2-yl]acetyl}octahydropyrazino[2,1-c][1,4]oxazin-3-yl]benzonitrile]	460
COc1c([C@H]2CN3CCN(C(=O)Cc4ccc(-n5cnnn5)cn4)C[C@H]3CO2)ccc(F)c1C#N [Example 63, 6-fluoro-2-methoxy-3-[(3S,9aS)-8-{[5-(1H-tetrazol-1-vl)pvridin-2-yl]acetyl}octahydropyrazino[2,1-c][1,4]oxazin-3-yl]benzonitrile]	180
Cc1c([C@H]2CN3CCN(C(=O)Cc4ccc(-n5cnnn5)nc4)C[C@H]3CO2)ccc(Cl)c1C#N [Example 64, 6-chloro-2-methyl-3-[(3S,9aS)-8-{[6-(1H-tetrazol-1-yl)pyridin-3-yl]acetyl}octahydropyrazino[2,1-c][1,4]oxazin-3-yl]benzonitrile]	680
Cc1c([C@@H]2CN3CCN(C(=O)Cc4ccc(-n5cnnn5)nc4)C[C@H]3CO2)ccc(Cl)c1C#N [Example 65]	150
N#Cc1ccc([C@@H]2CN3CCN(C(=O)Cc4ccc(-n5cnnn5)nc4)C[C@H]3CO2)cc1F [Example 66, 2-fluoro-4-[(3R,9aS)-8-{[6-(1H-tetrazol-1-yl)pyridin-3-yl]acetyl}octahydropyrazino[2,1-c][1,4]oxazin-3-yl]benzonitrile]	370
N#Cc1ccc([C@H]2CN3CCN(C(=O)Cc4ccc(-n5cnnn5)nc4)C[C@H]3CO2)cc1F [Example 67, 2-fluoro-4-[(3S,9aS)-8-{[6-(1H-tetrazol-1-yl)pyridin-3-yl]acetyl}octahydropyrazino[2,1-c][1,4]oxazin-3-yl]benzonitrile]	70
Cc1c([C@@H]2CN3CCN(C(=O)Cc4ccc(-n5cnnn5)nc4)C[C@H]3CO2)csc1C#N [Example 68, 3-methyl-4-[(3R,9aS)-8-{[6-(1H-tetrazol-1-yl)pyridin-3-yl]acetyl}octahydropyrazino[2,1-c][1,4]oxazin-3-yl]thiophene-2-carbonitrile]	40
Cc1c([C@H]2CN3CCN(C(=O)Cc4ccc(-n5cnnn5)nc4)C[C@H]3CO2)csc1C#N [Example 69, 3-methyl-4-[(3S,9aS)-8-{[6-(1H-tetrazol-1-yl)pyridin-3-yl]acetyl}octahydropyrazino[2,1-c][1,4]oxazin-3-yl]thiophene-2-carbonitrile]	110
Cc1c([C@H]2CN3CCN(C(=O)Cc4ccc(-n5cnnn5)cn4)C[C@H]3CO2)csc1C#N [Example 71, 3-methyl-4-[(3S,9aS)-8-{[5-(1H-tetrazol-1-yl)pyridin-2-yl]acetyl}octahydropyrazino[2,1-c][1,4]oxazin-3-yl]thiophene-2-carbonitrile]	390
Cc1cc2c(cc1[C@@H]1CN3CCN(C(=O)Cc4ccc(-n5cnnn5)nc4)C[C@H]3CO1)COC2=O [Example 72, 6-methyl-5-[(3R,9aS)-8-{[6-(1H-tetrazol-1-yl)pyridin-3-yl]acetyl}octahydropyrazino[2,1-c][1,4]oxazin-3-yl]-2-benzofuran-1(3H)-one]	750
Cc1cc2c(cc1[C@H]1CN3CCN(C(=O)Cc4ccc(-n5cnnn5)nc4)C[C@H]3CO1)COC2=O [Example 73, 6-methyl-5-[(3S,9aS)-8-{[6-(1H-tetrazol-1-yl)pyridin-3-yl]acetyl}octahydropyrazino[2,1-c][1,4]oxazin-3-yl]-2-benzofuran-1(3H)-one]	230
Cc1c(C#N)cncc1[C@@H]1CN2CCN(C(=O)Cc3ccc(-n4cnnn4)nc3)C[C@H]2CO1 [Example 74, 4-methyl-5-[(3R,9aS)-8-{[6-(1H-tetrazol-1-yl)pyridin-3-yl]acetyl}octahydropyrazino[2,1-c][1,4]oxazin-3-yl]pyridine-3-carbonitrile]	390
Cc1nc(-n2cnnn2)ccc1CC(=O)N1CCN2C[C@@H](c3ccc(F)c(C#N)c3C)OC[C@@H]2C1 [Example 77, 6-fluoro-2-methyl-3-[(3R,9aS)-8-{[2-methyl-6-(1H-tetrazol-1-vl)pvridin-3-yl]acetyl}octahydropyrazino[2,1-c][1,4]oxazin-3-yl]benzonitrile]	100

same assay, conditions: Thallium Flux IC50

Compound	IC50 [nM]
O=C1OCCc2cc([C@H]3CN4CCN(C(=O)Cc5ccc(-n6cnnn6)nc5)C[C@@H]4CO3)ccc21 [Example 55, 6-[(3S,9aR)-8-{[6-(1H-tetrazol-1-yl)pyridin-3-yl]acetyl}octahydropyrazino[2,1-c][1,4]oxazin-3-yl]-3,4-dihydro-1H-isochromen-1-one]	120
Cc1c([C@@H]2CN3CCN(C(=O)Cc4ccc(-n5cnnn5)cn4)C[C@H]3CO2)csc1C#N [Example 70, 3-methyl-4-[(3R,9aS)-8-{[5-(1H-tetrazol-1-yl)pyridin-2-yl]acetyl}octahydropyrazino[2,1-c][1,4]oxazin-3-yl]thiophene-2-carbonitrile]	270
Cc1c([C@@H]2CN3CCN(C(=O)Cc4cnc(-n5cnnn5)cn4)C[C@H]3CO2)ccc(F)c1C#N [Example 75, 6-fluoro-2-methyl-3-[(3R,9aS)-8-{[5-(1H-tetrazol-1-yl)pyrazin-2-yl]acetyl}octahydropyrazino[2,1-c][1,4]oxazin-3-yl]benzonitrile]	130
Cc1c([C@H]2CN3CCN(C(=O)Cc4cnc(-n5cnnn5)cn4)C[C@H]3CO2)ccc(F)c1C#N [Example 76, 6-fluoro-2-methyl-3-[(3S,9aS)-8-{[5-(1H-tetrazol-1-yl)pyrazin-2-yl]acetyl}octahydropyrazino[2,1-c][1,4]oxazin-3-yl]benzonitrile]	150
